Measurements from PubChem BioAssay AID248 (DTP/NCI, 2004).
Inconclusive results and toxic doses are left out. Rule as the data show it: active = T/C of 150% or more; inactive = T/C below 125%.

Tested on: L1210 leukemia ip in BDF1 mice, survival T/C
Assay: NCI In Vivo Anticancer Drug Screen. Data for tumor model L1210 Leukemia (intraperitoneal) in B6D2F1 (BDF1) mice
Settings: endpoint: mean survival time, higher = longer survival
How it was run: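 Mice bearing the transplanted tumor received compound or vehicle. Survival of the treated group was divided by that of the vehicle-treated control group to give the ratio.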

[1] = dose: 50.0 mg/kg/injection, schedule: Q01DX009 (ip), vehicle: saline with Tween-80
[2] = dose: 100.0 mg/kg/injection, schedule: Q01DX009 (ip), vehicle: saline with Tween-80
[3] = dose: 100.0 mg/kg/injection, schedule: Q04DX003 (ip), vehicle: saline with Tween-80
[4] = dose: 100.0 mg/kg/injection, schedule: Q01DX001 (ip), vehicle: saline
[5] = dose: 200.0 mg/kg/injection, schedule: Q01DX001 (ip), vehicle: saline
[6] = dose: 400.0 mg/kg/injection, schedule: Q01DX001 (ip), vehicle: saline
[7] = dose: 50.0 mg/kg/injection, schedule: Q01DX009 (ip), vehicle: Klucel (hydroxypropylcellulose) (HPC)
[8] = dose: 100.0 mg/kg/injection, schedule: Q04DX002 (ip), vehicle: saline
[9] = dose: 200.0 mg/kg/injection, schedule: Q04DX002 (ip), vehicle: saline
[10] = dose: 100.0 mg/kg/injection, schedule: Q01DX009 (ip), vehicle: Klucel (hydroxypropylcellulose) (HPC)
[11] = dose: 200.0 mg/kg/injection, schedule: Q01DX009 (ip), vehicle: Klucel (hydroxypropylcellulose) (HPC)

Measured: T/C

COC(=O)c1ccc(CBr)cc1
inactive: dose: 25.0 mg/kg/injection, schedule: Q01DX009 (ip), vehicle: saline with Tween-80 97 % of control | [1] 90 % of control | dose: 50.0 mg/kg/injection, schedule: Q04DX003 (ip), vehicle: saline with Tween-80 97 % of control | [2] 98 % of control | [3] 96 % of control

CSc1c(C(N)=O)c2c(N)ncnc2n1C1OC(CO)C(O)C1O (centres undefined)
inactive: [4] 114 % of control | [5] 121 % of control | [6] 121 % of control

C[n+]1cccc(SC2CCC3CC4CC3C2C4)c1 (centres undefined)
inactive: [1] 91 % of control

CCCCCCCCCOCCOCCOCCN
inactive: dose: 12.0 mg/kg/injection, schedule: Q01DX009 (ip), vehicle: Klucel (hydroxypropylcellulose) (HPC) 99 % of control | dose: 25.0 mg/kg/injection, schedule: Q01DX009 (ip), vehicle: Klucel (hydroxypropylcellulose) (HPC) 100 % of control | dose: 25.0 mg/kg/injection, schedule: Q04DX003 (ip), vehicle: saline 102 % of control | [7] 100 % of control | dose: 50.0 mg/kg/injection, schedule: Q04DX003 (ip), vehicle: saline 96 % of control | dose: 100.0 mg/kg/injection, schedule: Q04DX003 (ip), vehicle: saline 86 % of control

Ic1ccc(/C=N/Nc2nnc(N/N=C/c3ccc(I)cc3)c3ccccc23)cc1
inactive: dose: 50.0 mg/kg/injection, schedule: Q01DX001 (ip), vehicle: saline 98 % of control | [4] 96 % of control | [5] 98 % of control | [6] 98 % of control

CSc1ccc(OC(=O)Nc2cc([N+](=O)[O-])ccc2F)cc1C
inactive: dose: 100.0 mg/kg/injection, schedule: Q04DX002 (ip), vehicle: saline with Tween-80 89 % of control | [8] 92 % of control | dose: 200.0 mg/kg/injection, schedule: Q04DX002 (ip), vehicle: saline with Tween-80 93 % of control | [9] 110 % of control | dose: 400.0 mg/kg/injection, schedule: Q04DX002 (ip), vehicle: saline with Tween-80 91 % of control | dose: 800.0 mg/kg/injection, schedule: Q04DX002 (ip), vehicle: saline with Tween-80 93 % of control

O=S(=O)(c1ccccc1)C(I)I
inactive: dose: 10.0 mg/kg/injection, schedule: Q04DX002 (ip), vehicle: Klucel (hydroxypropylcellulose) (HPC) 96 % of control | dose: 20.0 mg/kg/injection, schedule: Q04DX002 (ip), vehicle: Klucel (hydroxypropylcellulose) (HPC) 94 % of control | dose: 40.0 mg/kg/injection, schedule: Q04DX002 (ip), vehicle: Klucel (hydroxypropylcellulose) (HPC) 100 % of control

CCOCCOCCOC(C)Oc1ccccc1 (centres undefined)
inactive: [8] 104 % of control | [9] 111 % of control | dose: 400.0 mg/kg/injection, schedule: Q04DX002 (ip), vehicle: saline 104 % of control

CCNc1nc(NCC)c(Cl)c(C(Cl)(Cl)Cl)n1
inactive: [7] 102 % of control | [10] 102 % of control | [11] 105 % of control

CCCCC/C(=N/N)c1ccc2cc3c(cc2c1)CCCC3
inactive: [4] 97 % of control | [5] 95 % of control | [6] 90 % of control

CSc1ccc(NC(=O)C(Br)C(Br)c2ccccc2)cc1 (centres undefined)
inactive: [10] 103 % of control | [11] 105 % of control | dose: 400.0 mg/kg/injection, schedule: Q01DX009 (ip), vehicle: Klucel (hydroxypropylcellulose) (HPC) 102 % of control

O=C1c2ccccc2C(=O)c2c(O)c3c(c(O)c21)CC=CC3
inactive: dose: 0.25 mg/kg/injection, schedule: Q04DX003 (ip), vehicle: saline with Tween-80 94 % of control | dose: 0.5 mg/kg/injection, schedule: Q04DX003 (ip), vehicle: saline with Tween-80 104 % of control | dose: 1.0 mg/kg/injection, schedule: Q04DX003 (ip), vehicle: saline with Tween-80 100 % of control | dose: 2.0 mg/kg/injection, schedule: Q04DX003 (ip), vehicle: saline with Tween-80 104 % of control | dose: 4.0 mg/kg/injection, schedule: Q04DX003 (ip), vehicle: saline with Tween-80 102 % of control | dose: 6.0 mg/kg/injection, schedule: Q04DX003 (ip), vehicle: saline with Tween-80 102 % of control | dose: 8.0 mg/kg/injection, schedule: Q04DX003 (ip), vehicle: saline with Tween-80 93 % of control | dose: 12.0 mg/kg/injection, schedule: Q04DX003 (ip), vehicle: saline with Tween-80 103 % of control | dose: 16.0 mg/kg/injection, schedule: Q04DX003 (ip), vehicle: saline with Tween-80 93 % of control | dose: 24.0 mg/kg/injection, schedule: Q04DX003 (ip), vehicle: saline with Tween-80 102 % of control | dose: 32.0 mg/kg/injection, schedule: Q04DX003 (ip), vehicle: saline with Tween-80 100 % of control | dose: 48.0 mg/kg/injection, schedule: Q04DX003 (ip), vehicle: saline with Tween-80 103 % of control | dose: 64.0 mg/kg/injection, schedule: Q04DX003 (ip), vehicle: saline with Tween-80 96 % of control | dose: 128.0 mg/kg/injection, schedule: Q04DX003 (ip), vehicle: saline with Tween-80 105 % of control

CC(=O)OC(C)C(C)Br (centres undefined)
inactive: dose: 50.0 mg/kg/injection, schedule: Q04DX002 (ip), vehicle: Klucel (hydroxypropylcellulose) (HPC) 93 % of control | dose: 100.0 mg/kg/injection, schedule: Q01DX001 (ip), vehicle: acetone 89 % of control | dose: 100.0 mg/kg/injection, schedule: Q04DX002 (ip), vehicle: Klucel (hydroxypropylcellulose) (HPC) 100 % of control | dose: 200.0 mg/kg/injection, schedule: Q01DX001 (ip), vehicle: acetone 92 % of control

O=C(O)C(Br)C(Br)c1ccc([N+](=O)[O-])cc1 (centres undefined)
inactive: dose: 100.0 mg/kg/injection, schedule: Q04DX002 (ip), vehicle: gum acacia 103 % of control | dose: 200.0 mg/kg/injection, schedule: Q04DX002 (ip), vehicle: gum acacia 107 % of control | dose: 400.0 mg/kg/injection, schedule: Q04DX002 (ip), vehicle: gum acacia 90 % of control

O=C(O)CC(c1ccccc1)n1ccc(=O)[nH]c1=O (centres undefined)
inactive: dose: 25.0 mg/kg/injection, schedule: Q01DX001 (ip), vehicle: Klucel (hydroxypropylcellulose) (HPC) 103 % of control | dose: 50.0 mg/kg/injection, schedule: Q01DX001 (ip), vehicle: Klucel (hydroxypropylcellulose) (HPC) 106 % of control | dose: 100.0 mg/kg/injection, schedule: Q01DX001 (ip), vehicle: Klucel (hydroxypropylcellulose) (HPC) 101 % of control

CC(=O)Nc1ccc(S(=O)(=O)C(Cl)c2ccccc2)cc1 (centres undefined)
inactive: [4] 103 % of control | [5] 103 % of control | [6] 98 % of control

CC(=O)CC(=O)Nc1cc(C(F)(F)F)ccc1Cl
inactive: [4] 97 % of control | [5] 101 % of control | [6] 101 % of control

C=C1CC(OC(C)=O)C2C(C)C(=O)OC2C2C1CC1OC12C (centres undefined)
inactive: [8] 92 % of control | [9] 92 % of control

CSc1ccc(OC(C)=O)cc1C
inactive: [4] 106 % of control | [5] 98 % of control | [6] 96 % of control

CC(C(O)c1ccccc1)N(C)/N=N/c1nc[nH]c1C(N)=O (centres undefined)
inactive: dose: 100.0 mg/kg/injection, schedule: Q01DX001 (ip), vehicle: saline with Tween-80 92 % of control | [2] 98 % of control | [3] 98 % of control | dose: 200.0 mg/kg/injection, schedule: Q01DX001 (ip), vehicle: saline with Tween-80 90 % of control | dose: 200.0 mg/kg/injection, schedule: Q01DX009 (ip), vehicle: saline with Tween-80 103 % of control | dose: 200.0 mg/kg/injection, schedule: Q04DX003 (ip), vehicle: saline with Tween-80 102 % of control | dose: 400.0 mg/kg/injection, schedule: Q01DX001 (ip), vehicle: saline with Tween-80 92 % of control | dose: 400.0 mg/kg/injection, schedule: Q01DX009 (ip), vehicle: saline with Tween-80 107 % of control | dose: 400.0 mg/kg/injection, schedule: Q04DX003 (ip), vehicle: saline with Tween-80 102 % of control
